Read-outs that look alike come from different tables or passages of the source.
Assays:
[1] = tested on: liver microsomes of humans; conditions: ref data sheets provided by the manufacturer, cited from earlier work
human liver microsomes [2] = experiment: Effects of CYP-specific inhibitors; conditions: liver sample HH54 microsomes
CYP2A6.1 = target: T1, CYP2A6.1 (Homo sapiens, UniProt P11509); conditions: 20 min, 60 µM
T1 sequence (P11509 1-494): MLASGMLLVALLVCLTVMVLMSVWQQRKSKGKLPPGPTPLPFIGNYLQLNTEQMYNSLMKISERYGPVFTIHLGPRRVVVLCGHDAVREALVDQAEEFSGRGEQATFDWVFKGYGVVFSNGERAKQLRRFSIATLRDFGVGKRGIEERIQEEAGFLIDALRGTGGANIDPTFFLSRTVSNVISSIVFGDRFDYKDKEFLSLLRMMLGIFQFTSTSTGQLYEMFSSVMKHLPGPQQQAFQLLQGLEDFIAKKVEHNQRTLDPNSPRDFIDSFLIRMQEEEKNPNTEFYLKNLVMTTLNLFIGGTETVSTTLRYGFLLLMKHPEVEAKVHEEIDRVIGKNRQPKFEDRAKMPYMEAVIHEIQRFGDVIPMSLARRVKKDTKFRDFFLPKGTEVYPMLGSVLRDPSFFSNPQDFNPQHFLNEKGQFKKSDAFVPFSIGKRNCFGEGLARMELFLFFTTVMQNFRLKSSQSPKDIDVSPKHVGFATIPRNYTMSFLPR

human liver microsomes [3] = experiment: Oxidation of flavanone and flavone by human liver microsomes; conditions: P450s and human liver microsomes, whole assay system
human liver microsomes [4] = tested on: human liver microsomes

SMILES: CCOc1ccc(NC(C)=O)cc1 [Phenacetin]
- Phenacetin O-deethylation ([1]; human sample HG95): 0.26 nmol/mg/min
- Phenacetin O-deethylation ([1]; human sample HH2): 0.51 nmol/mg/min
- Phenacetin O-deethylation ([1]; human sample HH47): 0.36 nmol/mg/min
- Phenacetin O-deethylation ([1]; human sample HH54): 0.44 nmol/mg/min

SMILES: CC[C@@]1(c2ccccc2)NC(=O)N(C)C1=O [S-Mephenytoin]
- S-Mephenytoin 4’-hydroxylation ([1]; human sample HG95): 0.015 nmol/min/mg
- S-Mephenytoin N-demethylation ([1]; human sample HG95): 0.0070 nmol/min/mg
- S-Mephenytoin 4’-hydroxylation ([1]; human sample HH2): 0.020 nmol/min/mg
- S-Mephenytoin N-demethylation ([1]; human sample HH2): 0.010 nmol/min/mg
- S-Mephenytoin 4’-hydroxylation ([1]; human sample HH47): 0.0040 nmol/min/mg
- S-Mephenytoin N-demethylation ([1]; human sample HH47): 0.0065 nmol/min/mg
- S-Mephenytoin 4’-hydroxylation ([1]; human sample HH54): 0.026 nmol/min/mg
- S-Mephenytoin N-demethylation ([1]; human sample HH54): 0.0010 nmol/min/mg

SMILES: O=c1ccc2ccccc2o1 [coumarin]
- Coumarin 7-hydroxylation ([1]; human sample HG95): 0.18 nmol/mg/min
- Coumarin 7-hydroxylation ([1]; human sample HH2): no detectable
- Coumarin 7-hydroxylation ([1]; human sample HH47): 0.51 nmol/mg/min
- Coumarin 7-hydroxylation ([1]; human sample HH54): 2.5 nmol/mg/min
- effect on formation of flavone (from flavanone) (human liver microsomes [2]; 60 µM flavanone): inhibited
- effect on 2´OHFva formation (from flavanone) (human liver microsomes [2]; 60 µM flavanone, low concentration of inhibitor): markedly decreased
- effect on formation of OHFM6, OHFM9, and diOHFM4 (from flavone) (human liver microsomes [2]; 60 µM flavone, low concentration of inhibitor): strongly inhibited

SMILES: O=c1cc(-c2ccccc2)oc2c1ccc1ccccc12 [ANF, α-naphthoflavone]
- effect on formation of 7OHFva, 3´OHFva, 4´OHFva OHFvaM5, and OHFvaM6 (from flavanone) (human liver microsomes [2]; 60 µM flavanone): inhibited
- effect on formation of OHFM11, diOHFM3, and diOHFM5 (from flavone) (human liver microsomes [2]; 60 µM flavone): inhibited

SMILES: CC(=O)O[C@H]1C(=O)[C@@]2(C)[C@H]([C@H](OC(=O)c3ccccc3)[C@]3(O)C[C@H](OC(=O)[C@H](O)[C@@H](NC(=O)c4ccccc4)c4ccccc4)C(C)=C1C3(C)C)[C@]1(OC(C)=O)CO[C@@H]1C[C@@H]2O [Paclitaxel]
- Paclitaxel 6a-hydroxylation ([1]; human sample HG95): 0.093 nmol/min/mg
- Paclitaxel 6a-hydroxylation ([1]; human sample HH2): 0.13 nmol/min/mg
- Paclitaxel 6a-hydroxylation ([1]; human sample HH47): 0.13 nmol/min/mg
- Paclitaxel 6a-hydroxylation ([1]; human sample HH54): 0.21 nmol/min/mg

SMILES: C[C@]12CC[C@H]3[C@@H](CCC4=CC(=O)CC[C@@]43C)[C@@H]1CC[C@@H]2O [Testosterone]
- Testosterone 6β-hydroxylation ([1]; human sample HG95): 0.64 nmol/mg/min
- Testosterone 6β-hydroxylation ([1]; human sample HH2): 0.78 nmol/mg/min
- Testosterone 6β-hydroxylation ([1]; human sample HH47): 4.1 nmol/mg/min
- Testosterone 6β-hydroxylation ([1]; human sample HH54): 4.9 nmol/mg/min

SMILES: O=c1cc(-c2ccccc2)oc2ccccc12 [flavone]
- rate of formation of 5OHF from flavone (CYP2A6.1): ~ 0.01 nmol/min/nmol P450
- rate of formation of 6OHF from flavone (CYP2A6.1): 0.11 min⁻¹
- enzymatic formation of 7OHF from flavone (human liver microsomes [3]): did not detect

SMILES: O=C1CC(c2ccccc2)Oc2ccccc21 (stereo not drawn) [flavanone, Flavanone]
- rate of formation of flavone from flavanone (human liver microsomes [4]): 0.15 nmol/min/nmol
